In brackets after ≈: the same amount, converted by molar mass. Like-named read-outs stand apart in the source and are kept apart here.
System: 100 A. baumannii strains (50 MDR, 50 non-MDR)
Assay: MIC broth microdilution at IHMA Europe, panel of 100 strains
Format: cell-based
Conditions: for MIC / MIC50 / MIC90: Acinetobacter baumannii; for MIC50: read-out: MIC 50; for MIC90: read-out: MIC 90

MIC (A. baumannii IHMA 1769782, Israel 2018, MDR, read-out: MIC): > 32 µg/mL
MIC (A. baumannii IHMA 1769910, Israel 2018, Non-MDR, read-out: MIC): 8 µg/mL (≈ 16.6 µM)
MIC (A. baumannii IHMA 1790317, Czech Republic 2018, Non-MDR, read-out: MIC): 1 µg/mL (≈ 2.08 µM)
MIC (A. baumannii IHMA 1790916, Romania 2018, Non-MDR, read-out: MIC): 0.5 µg/mL (≈ 1.04 µM)
MIC (A. baumannii IHMA 1791877, Israel 2018, MDR, read-out: MIC): > 32 µg/mL
MIC (A. baumannii IHMA 1792961, Jordan 2018, MDR, read-out: MIC): > 32 µg/mL
MIC (A. baumannii IHMA 1795669, Tunisia 2018, Non-MDR, read-out: MIC): 4 µg/mL (≈ 8.32 µM)
MIC (A. baumannii IHMA 1814276, Lebanon 2018, MDR, read-out: MIC): > 32 µg/mL
MIC (A. baumannii IHMA 1815198, Kuwait 2018, MDR, read-out: MIC): > 32 µg/mL
MIC (A. baumannii IHMA 1815856, Israel 2018, MDR, read-out: MIC): > 32 µg/mL
MIC (A. baumannii IHMA 1829500, Georgia 2018, Non-MDR, read-out: MIC): 1 µg/mL (≈ 2.08 µM)
MIC (A. baumannii IHMA 1830924, United Kingdom 2018, Non-MDR, read-out: MIC): 4 µg/mL (≈ 8.32 µM)
MIC (A. baumannii IHMA 1849819, Kuwait 2018, MDR, read-out: MIC): > 32 µg/mL
MIC (A. baumannii IHMA 1849829, Kuwait 2018, Non-MDR, read-out: MIC): 1 µg/mL (≈ 2.08 µM)
MIC (A. baumannii IHMA 1857118, Slovenia 2018, Non-MDR, read-out: MIC): 1 µg/mL (≈ 2.08 µM)
MIC (A. baumannii IHMA 1863631, France 2018, Non-MDR, read-out: MIC): 1 µg/mL (≈ 2.08 µM)
MIC (A. baumannii IHMA 1884428, Italy 2018, Non-MDR, read-out: MIC): 1 µg/mL (≈ 2.08 µM)
MIC (A. baumannii IHMA 1884990, Germany 2018, Non-MDR, read-out: MIC): 1 µg/mL (≈ 2.08 µM)
MIC (A. baumannii IHMA 1900538, Turkey 2018, Non-MDR, read-out: MIC): 0.5 µg/mL (≈ 1.04 µM)
MIC (A. baumannii IHMA 1913773, Kenya 2018, Non-MDR, read-out: MIC): 1 µg/mL (≈ 2.08 µM)
MIC (A. baumannii IHMA 1926285, Qatar 2018, Non-MDR, read-out: MIC): ≤ 0.25 µg/mL
MIC (A. baumannii IHMA 1926288, Qatar 2018, MDR, read-out: MIC): 32 µg/mL (≈ 66.6 µM)
MIC (A. baumannii IHMA 1963732, Turkey 2019, MDR, read-out: MIC): 32 µg/mL (≈ 66.6 µM)
MIC (A. baumannii IHMA 1967860, Spain 2019, Non-MDR, read-out: MIC): 4 µg/mL (≈ 8.32 µM)
MIC (A. baumannii IHMA 1971673, Latvia 2019, MDR, read-out: MIC): > 32 µg/mL
MIC (A. baumannii IHMA 1983151, Greece 2019, MDR, read-out: MIC): 32 µg/mL (≈ 66.6 µM)
MIC (A. baumannii IHMA 1984665, Lithuania 2019, MDR, read-out: MIC): > 32 µg/mL
MIC (A. baumannii IHMA 1986738, Turkey 2019, MDR, read-out: MIC): > 32 µg/mL
MIC (A. baumannii IHMA 1987162, Croatia 2019, MDR, read-out: MIC): > 32 µg/mL
MIC (A. baumannii IHMA 1993615, Turkey 2019, MDR, read-out: MIC): > 32 µg/mL
MIC (A. baumannii IHMA 1994284, Italy 2019, MDR, read-out: MIC): 32 µg/mL (≈ 66.6 µM)
MIC (A. baumannii IHMA 1995161, Czech Republic 2019, Non-MDR, read-out: MIC): 1 µg/mL (≈ 2.08 µM)
MIC (A. baumannii IHMA 1997936, Morocco 2019, Non-MDR, read-out: MIC): 1 µg/mL (≈ 2.08 µM)
MIC (A. baumannii IHMA 1999178, Belgium 2019, Non-MDR, read-out: MIC): 1 µg/mL (≈ 2.08 µM)
MIC (A. baumannii IHMA 2003279, Turkey 2019, MDR, read-out: MIC): > 32 µg/mL
MIC (A. baumannii IHMA 2014931, South Africa 2019, Non-MDR, read-out: MIC): 1 µg/mL (≈ 2.08 µM)
MIC (A. baumannii IHMA 2019315, Romania 2019, Non-MDR, read-out: MIC): 0.5 µg/mL (≈ 1.04 µM)
MIC (A. baumannii IHMA 2020360, Croatia 2019, MDR, read-out: MIC): 32 µg/mL (≈ 66.6 µM)
MIC (A. baumannii IHMA 2031511, Greece 2019, Non-MDR, read-out: MIC): 1 µg/mL (≈ 2.08 µM)
MIC (A. baumannii IHMA 2031524, Greece 2019, MDR, read-out: MIC): > 32 µg/mL
MIC (A. baumannii IHMA 2034657, Tunisia 2019, Non-MDR, read-out: MIC): 1 µg/mL (≈ 2.08 µM)
MIC (A. baumannii IHMA 2035089, Serbia 2019, MDR, read-out: MIC): 32 µg/mL (≈ 66.6 µM)
MIC (A. baumannii IHMA 2035134, Serbia 2019, Non-MDR, read-out: MIC): 1 µg/mL (≈ 2.08 µM)
MIC (A. baumannii IHMA 2038976, Hungary 2019, MDR, read-out: MIC): 32 µg/mL (≈ 66.6 µM)
MIC (A. baumannii IHMA 2051503, Serbia 2019, MDR, read-out: MIC): > 32 µg/mL
MIC (A. baumannii IHMA 2058329, Slovenia 2019, Non-MDR, read-out: MIC): 1 µg/mL (≈ 2.08 µM)
MIC (A. baumannii IHMA 2065587, France 2019, Non-MDR, read-out: MIC): 1 µg/mL (≈ 2.08 µM)
MIC (A. baumannii IHMA 2099294, United Kingdom 2019, Non-MDR, read-out: MIC): 4 µg/mL (≈ 8.32 µM)
MIC (A. baumannii IHMA 2129256, Qatar 2019, Non-MDR, read-out: MIC): 1 µg/mL (≈ 2.08 µM)
MIC (A. baumannii IHMA 2154584, Israel 2020, MDR, read-out: MIC): > 32 µg/mL
MIC (A. baumannii IHMA 2155340, Kenya 2020, MDR, read-out: MIC): > 32 µg/mL
MIC (A. baumannii IHMA 2156634, Turkey 2020, MDR, read-out: MIC): > 32 µg/mL
MIC (A. baumannii IHMA 2156709, Turkey 2020, MDR, read-out: MIC): > 32 µg/mL
MIC (A. baumannii IHMA 2177232, Lithuania 2020, MDR, read-out: MIC): 32 µg/mL (≈ 66.6 µM)
MIC (A. baumannii IHMA 2177489, Lithuania 2020, MDR, read-out: MIC): > 32 µg/mL
MIC (A. baumannii IHMA 2178574, Ukraine 2020, Non-MDR, read-out: MIC): ≤ 0.25 µg/mL
MIC (A. baumannii IHMA 2180134, Malaysia 2020, Non-MDR, read-out: MIC): 1 µg/mL (≈ 2.08 µM)
MIC (A. baumannii IHMA 2180142, Malaysia 2020, MDR, read-out: MIC): > 32 µg/mL
MIC (A. baumannii IHMA 2181370, Morocco 2020, MDR, read-out: MIC): > 32 µg/mL
MIC (A. baumannii IHMA 2183849, Argentina 2020, Non-MDR, read-out: MIC): 1 µg/mL (≈ 2.08 µM)
MIC (A. baumannii IHMA 2184382, Japan 2020, Non-MDR, read-out: MIC): 1 µg/mL (≈ 2.08 µM)
MIC (A. baumannii IHMA 2193375, Venezuela 2020, MDR, read-out: MIC): > 32 µg/mL
MIC (A. baumannii IHMA 2193485, Venezuela 2020, Non-MDR, read-out: MIC): 1 µg/mL (≈ 2.08 µM)
MIC (A. baumannii IHMA 2193607, Venezuela 2020, MDR, read-out: MIC): > 32 µg/mL
MIC (A. baumannii IHMA 2196914, South Africa 2020, MDR, read-out: MIC): 32 µg/mL (≈ 66.6 µM)
MIC (A. baumannii IHMA 2196959, South Africa 2020, MDR, read-out: MIC): > 32 µg/mL
MIC (A. baumannii IHMA 2203763, Spain 2020, MDR, read-out: MIC): > 32 µg/mL
MIC (A. baumannii IHMA 2205144, Korea, South 2020, MDR, read-out: MIC): 32 µg/mL (≈ 66.6 µM)
MIC (A. baumannii IHMA 2206459, Taiwan 2020, MDR, read-out: MIC): > 32 µg/mL
MIC (A. baumannii IHMA 2206507, Taiwan 2020, Non-MDR, read-out: MIC): 0.5 µg/mL (≈ 1.04 µM)
MIC (A. baumannii IHMA 2215307, Hong Kong 2020, Non-MDR, read-out: MIC): 1 µg/mL (≈ 2.08 µM)
MIC (A. baumannii IHMA 2216586, Taiwan 2020, MDR, read-out: MIC): 32 µg/mL (≈ 66.6 µM)
MIC (A. baumannii IHMA 2223200, Colombia 2020, Non-MDR, read-out: MIC): 1 µg/mL (≈ 2.08 µM)
MIC (A. baumannii IHMA 2224017, Panama 2020, MDR, read-out: MIC): 32 µg/mL (≈ 66.6 µM)
MIC (A. baumannii IHMA 2224303, Panama 2020, Non-MDR, read-out: MIC): 4 µg/mL (≈ 8.32 µM)
MIC (A. baumannii IHMA 2231797, Greece 2020, MDR, read-out: MIC): > 32 µg/mL
MIC (A. baumannii IHMA 2233099, Guatemala 2020, MDR, read-out: MIC): > 32 µg/mL
MIC (A. baumannii IHMA 2233430, Kazakhstan 2020, MDR, read-out: MIC): > 32 µg/mL
MIC (A. baumannii IHMA 2238964, Thailand 2020, MDR, read-out: MIC): > 32 µg/mL
MIC (A. baumannii IHMA 2239052, Thailand 2020, Non-MDR, read-out: MIC): 0.5 µg/mL (≈ 1.04 µM)
MIC (A. baumannii IHMA 2261633, Canada 2020, Non-MDR, read-out: MIC): 0.5 µg/mL (≈ 1.04 µM)
MIC (A. baumannii IHMA 2274234, South Africa 2020, MDR, read-out: MIC): 32 µg/mL (≈ 66.6 µM)
MIC (A. baumannii IHMA 2274364, South Africa 2020, MDR, read-out: MIC): > 32 µg/mL
MIC (A. baumannii IHMA 2275237, Chile 2020, Non-MDR, read-out: MIC): 1 µg/mL (≈ 2.08 µM)
MIC (A. baumannii IHMA 2275751, Jordan 2020, MDR, read-out: MIC): > 32 µg/mL
MIC (A. baumannii IHMA 2316205, United States 2020, MDR, read-out: MIC): > 32 µg/mL
MIC (MDR n = 50, read-out: MAX (maximum MIC; all strains inhibited)): > 32 µg/mL
MIC50 (MDR n = 50): > 32 µg/mL
MIC90 (MDR n = 50): > 32 µg/mL
MIC (all isolates n = 100, read-out: MAX (maximum MIC; all strains inhibited)): > 32 µg/mL
MIC50 (all isolates n = 100): 8 µg/mL (≈ 16.6 µM)
MIC90 (all isolates n = 100): > 32 µg/mL
MIC (all isolates n = 100, read-out: MIN (minimum MIC)): ≤ 0.25 µg/mL
MIC (non-MDR n = 50, read-out: MAX (maximum MIC)): 8 µg/mL (≈ 16.6 µM)
MIC50 (non-MDR n = 50): 1 µg/mL (≈ 2.08 µM)
MIC90 (non-MDR n = 50): 4 µg/mL (≈ 8.32 µM)
MIC (non-MDR n = 50, read-out: MIN (minimum MIC)): ≤ 0.25 µg/mL
Compound: CO/N=C(\C(=O)N[C@@H]1C(=O)N2C(C(=O)[O-])=C(C[N+]3(C)CCCC3)CS[C@H]12)c1csc(N)n1 [Cefepime, cefepime]
Percentage I (MDR n = 50): 6%
Percentage S (MDR n = 50): 0%
Percentage I (all n = 100, CLSI breakpoints): 3%
Percentage R (all n = 100, CLSI breakpoints): 47%
Percentage S (all n = 100, CLSI breakpoints): 50%
Percentage I (non-MDR n = 50): 0%
Percentage R (non-MDR n = 50): 0%
